Source: PMC3666932 (Archives of pharmacal research, 2012)

Legend:
Cytotoxicity assay = format: cell-based; conditions: mouse, Balb/C 3T3 mouse fibroblasts (clone A31)
[1] = tested on: T. cruzi epimastigotes (Tulahuen CL98 strain); test: Antitrypanosomal activity assay; format: cell-based, Trypanosoma cruzi; conditions: for IC50: Trypanosoma cruzi, TULAHUEN, 48 h, read-out: Antitrypanocidal activity IC50; for Selectivity index (Cytotoxicity/ Activity): ratio of IC50 for fibroblast cells/ IC50 for parasites
T. cruzi epimastigotes = conditions: ref Ramos et al., 2009; cited from earlier work
[2] = Antitrypanosomal activity assay; format: cell-based, Trypanosoma cruzi; conditions: mouse (fibroblasts) / Trypanosoma cruzi (parasites)

Row | Compound | IC50 at 48 h (Cytotoxicity assay) [µM] | IC50 [1] [µM] | Selectivity index (Cytotoxicity/ Activity) [1] | also measured
1 | O=C1C(Cl)=C(N(C(=O)c2ccccc2Cl)C(=O)c2ccccc2Cl)C(=O)c2ccccc21 [IMDNQ8, 2-Chloro-N-(2-chlorobenzoyl)-N-(3-chloro-1,4-dioxo-1,4-dihydronaphthalen-2-yl)-benzamide] | 26.5 ± 1.61 | 2.67 ± 0.33 | – | –
2 | O=C1C(Cl)=C(N(C(=O)CCl)C(=O)CCl)C(=O)c2ccccc21 [IMDNQ11] | – | – | 3.20 ± 0.44 | –
3 | O=C1C(Cl)=C(N2C(=O)CCC2=O)C(=O)c2ccccc21 [IMDNQ1] | – | – | 60.25 ± 2.79 | –
4 | O=C1C(Br)=C(N(C(=O)c2ccc(F)cc2)C(=O)c2ccc(F)cc2)C(=O)c2ccccc21 [IMDNQ5, N-(3-Bromo-1,4-dioxo-1,4-dihydronaphthalen-2-yl)-4-fluoro-N-(4-fluorobenzoyl)-benzamide] | 12.8 ± 0.73 | 2.27 ± 0.15 | – | –
5 | O=C1C(c2ccccc2)=C(c2ccccc2)C(=O)c2ccccc21 [DPNQ, 2,3-diphenyl-1,4-naphthoquin-one] | – | – | – | LD50 (T. cruzi epimastigotes): 2.5 µM
6 | CC1CS(=O)(=O)CCN1/N=C/c1ccc([N+](=O)[O-])o1 (stereo not shown) [Nifurtimox, reference compound] | – | 10.7 ± 1.01 | – | –
7 | O=C1C(Cl)=C(N2C(=O)c3ccccc3C2=O)C(=O)c2ccccc21 [IMDNQ2] | – | – | 53.97 ± 5.95 | –
8 | O=C1C(Cl)=C(N2C(=O)COCC2=O)C(=O)c2ccccc21 [IMDNQ4] | – | – | 7.43 ± 0.97 | –
9 | O=C1C(Br)=C(N(C(=O)c2ccccc2Cl)C(=O)c2ccccc2Cl)C(=O)c2ccccc21 [IMDNQ6, N-(3-Bromo-1,4-dioxo-1,4-dihydronaphthalen-2-yl)-2-chloro-N-(2-chlorobenzoyl)-benzamide] | 14.2 ± 1.42 | – | – | –
10 | O=C1C(Cl)=C(N(C(=O)c2ccc(F)cc2)C(=O)c2ccc(F)cc2)C(=O)c2ccccc21 [IMDNQ9, N-(3-Chloro-1,4-dioxo-1,4-dihydronaphthalen-2-yl)-4-fluoro-N-(4-fluorobenzoyl)-benzamide] | 21.8 ± 1.88 | 4.07 ± 0.23 | – | –
11 | CCCC(=O)N(C(=O)CCC)C1=C(Cl)C(=O)c2ccccc2C1=O [IMDNQ3] | – | – | 31.83 ± 3.17 | –
12 | O=C1C(Cl)=C(N(C(=O)c2cccc(Cl)c2)C(=O)c2cccc(Cl)c2)C(=O)c2ccccc21 [IMDNQ10, 3-Chloro-N-(3-chlorobenzoyl)-N-(3-chloro-1,4-dioxo-1,4-dihydronaphthalen-2-yl)-benzamide] | – | 2.23 ± 0.15 | – | selectivity ratio at 48 h [2]: 275 ± 13.7
